Data as given in patent US11109593B2, “Isoxazolin-5-one derivative and herbicide containing same as active ingredient” (HOKKO CHEMICAL INDUSTRY CO., LTD., priority 2017, dated 2021).

Experiments:
Format in all cases: in vivo
[1] = tested on: Echinochloa crus-galli; experiment: Test Example 1: herbicidal effect test by treatment of rice paddy soil (immediately after seeding); details: 120 g/10a active ingredient, dry weight vs untreated area, 14 days after treatment
How it was run: (§1)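 Values are herbicidal rates (%) derived from average plant dry weight in treated versus untreated pots 14 days after treatment, run in duplicate. Treatment was a water-diluted emulsion dropped into flooded paddy soil right after sowing, at 120 g active ingredient per 10 ares.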

[2] = tested on: Scirpus juncoides; experiment: as above; details: 120 g/10a active ingredient, dry weight vs untreated area, 14 days after treatment
How it was run: as §1

[3] = tested on: broad leaf weeds (Lindernia pyxidaria and Monochoria vaginalis); experiment: as above; details: 120 g/10a active ingredient, dry weight vs untreated area, 14 days after treatment
How it was run: as §1

[4] = tested on: Echinochloa crus-galli; experiment: Test Example 2: herbicidal effect test by treatment during growing period in paddy rice cultivation (seven days after seeding); details: 120 g/10a active ingredient, assessed 14 days after treatment, dry weight vs untreated area
How it was run: (§2)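 Greenhouse flooded-pot test, seeds sown in puddled paddy soil; emulsion applied into water 7 d after seeding, 120 g a.i./10 a. Dry-weight-based herbicidal rate at 14 d, n=2.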

[5] = tested on: Scirpus juncoides; experiment: as above; details: 120 g/10a active ingredient, assessed 14 days after treatment, dry weight vs untreated area
How it was run: as §2

[6] = tested on: broad leaf weeds (Lindernia pyxidaria and Monochoria vaginalis); experiment: as above; details: 120 g/10a active ingredient, assessed 14 days after treatment, dry weight vs untreated area
How it was run: as §2

[7] = tested on: Amaranthus viridis; experiment: Test Example 3: herbicidal effect test by treatment of dry field farming soil (one day after seeding); details: 120 g/10a active ingredient, evaluated 14 days after treatment
How it was run: (§3)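 Compound emulsions are sprayed on the soil surface one day after sowing (120 g a.i. per 10 ares) before weeds emerge. Effect is expressed as percent dry-weight reduction versus untreated controls 14 days post-treatment.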

[8] = tested on: Chenopodium album; experiment: as above; details: 120 g/10a active ingredient, evaluated 14 days after treatment
How it was run: as §3

[9] = tested on: Echinochloa crus-galli; experiment: as above; details: 120 g/10a active ingredient, evaluated 14 days after treatment
How it was run: as §3

[10] = tested on: southern crabgrass; experiment: as above; details: 120 g/10a active ingredient, evaluated 14 days after treatment
How it was run: as §3

[11] = tested on: Amaranthus viridis; experiment: Test Example 4: herbicidal effect test by treatment of leave and stem in dry field farming (seven days after seeding); details: 120 g/10a active ingredient; emulsion sprayed seven days after seeding; evaluated 14 days after treatment
How it was run: (§4)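 Duplicate pots were scored 14 days post-spray by dry weight, herbicidal rate = {1 − treated/untreated average dry weight} × 100. The water-diluted emulsion, equivalent to 120 g active ingredient per 10 ares in 100 L, was applied seven days after sowing 20 seeds each into the upper 1 cm of alluvial soil.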

[12] = tested on: Chenopodium album; experiment: as above; details: 120 g/10a active ingredient; emulsion sprayed seven days after seeding; evaluated 14 days after treatment
How it was run: as §4

[13] = tested on: Echinochloa crus-galli; experiment: as above; details: 120 g/10a active ingredient; emulsion sprayed seven days after seeding; evaluated 14 days after treatment
How it was run: as §4

[14] = tested on: southern crabgrass; experiment: as above; details: 120 g/10a active ingredient; emulsion sprayed seven days after seeding; evaluated 14 days after treatment
How it was run: as §4

Compound	Herbicidal rate (%) Echinochloa crus-galli [1]	Herbicidal rate (%) Scirpus juncoides [2]	Herbicidal rate (%) Lindernia pyxidaria [3]	Herbicidal rate (%) Monochoria vaginalis [3]	Herbicidal rate (%) Echinochloa crus-galli [4]	Herbicidal rate (%) Scirpus juncoides [5]	Herbicidal rate (%) Lindernia pyxidaria [6]	Herbicidal rate (%) Monochoria vaginalis [6]	herbicidal rate, Amaranthus viridis [7]	herbicidal rate, Chenopodium album [8]	herbicidal rate, Echinochloa crus-galli [9]	herbicidal rate, southern crabgrass [10]	herbicidal effect (herbicidal rate), Amaranthus viridis [11]	herbicidal effect (herbicidal rate), Chenopodium album [12]	herbicidal effect (herbicidal rate), Echinochloa crus-galli [13]	herbicidal effect (herbicidal rate), southern crabgrass [14]
CSCCn1oc(=O)c(Cc2ccccc2N(C(C)=O)S(=O)(=O)C(F)(F)F)c1C [Compound 1-305]	90%	90%	90%	90%	90%	90%	90%	90%	90%	90%	90%	90%	40%	40%	90%	90%
Cc1c(Cc2ccccc2N(C(=O)Oc2ccccc2)S(=O)(=O)C(F)(F)F)c(=O)on1C(C)c1ccccc1 (stereo not drawn) [Compound 1-766]	90%	90%	90%	90%	90%	90%	90%	90%	90%	90%	90%	90%	40%	40%	90%	90%
Cc1c(Cc2ccccc2N(S(=O)(=O)C(F)(F)F)S(=O)(=O)C(F)(F)F)c(=O)on1CCC(C)(C)C [Compound 1-975]	100%	90%	90%	80%	100%	80%	70%	80%	90%	90%	80%	90%	50%	40%	50%	0%
Cc1c(Cc2ccccc2NS(=O)(=O)C(F)(F)F)c(=O)on1C1CCCCC1 [Compound 1-142]	100%	90%	100%	90%	100%	90%	90%	100%	70%	90%	100%	90%	60%	40%	90%	80%
Cc1c(Cc2ccccc2N(S(C)(=O)=O)S(=O)(=O)C(F)(F)F)c(=O)on1C(C)C [Compound 1-888]	100%	90%	100%	90%	90%	90%	80%	100%	40%	60%	90%	70%	40%	40%	80%	40%
CCOC(=O)N(c1ccccc1Cc1c(C)n(C(C)c2ccccc2)oc1=O)S(=O)(=O)C(F)(F)F (stereo not drawn) [Compound 1-626]	90%	90%	90%	90%	90%	90%	90%	90%	90%	90%	90%	90%	40%	40%	90%	90%
CCCC(c1ccccc1)n1oc(=O)c(Cc2ccccc2NS(=O)(=O)C(F)(F)F)c1C (stereo not drawn) [Compound 1-212]	90%	90%	90%	80%	90%	90%	70%	90%	0%	0%	90%	90%	80%	60%	90%	90%
CCC(C)n1oc(=O)c(Cc2ccccc2N(C(=O)OC(C)C)S(=O)(=O)C(F)(F)F)c1C (stereo not drawn) [Compound 1-642]	90%	90%	90%	90%	90%	90%	90%	90%	90%	90%	90%	90%	40%	40%	90%	90%
COCC(C)n1oc(=O)c(Cc2ccccc2N(S(C)(=O)=O)S(=O)(=O)C(F)(F)F)c1C (stereo not drawn) [Compound 1-899]	90%	90%	90%	90%	90%	90%	90%	90%	90%	90%	90%	90%	40%	40%	90%	90%
